For one assay, the target named is T1, BACE1 (Homo sapiens, UniProt P56817).
T1 construct: Human HEK293 cells which are stably transfected with a vector expressing a cDNA of the human APP wt gene (APP695); endogenous in cells; host or cells: HEK293 stably expressing human APP695 wt
As to the kind of experiment: Cellular Aβ-lowering assay (Aβ40 ELISA, HEK293 cells expressing human APP695). The assay is classed as cell-based. Particulars: HEK293 cells stably expressing human APP695; Aβ40 in supernatant after 18-20 hrs; read-out: BACE1 cell act. Aβ40 IC50. Here is the method: Human HEK293 cells which are stably transfected with a vector expressing a cDNA of the human APP wt gene (APP695) were used to assess the potency of the compounds in a cellular assay. The cells were seeded in 96-well microtiter plates in cell culture medium (Iscove, plus 10% (v/v) fetal bovine serum, glutamine, penicillin/streptomycin) to about 80% confluence and the compounds were added at a 10× concentration in 1/10 volume of medium without FCS containing 8% DMSO (final concentration of DMSO was kept at 0.8% v/v). After 18-20 hrs incubation at 37° C. and 5% CO2 in a humidified incubator the culture supernatant was harvested for the determination of Aβ40 concentrations. 96 well ELISA plates (e.g., Nunc MaxiSorb) were coated with monoclonal antibody which specifically recognize the C-terminal end of Aβ40^10. After blocking of non-specific binding sites with e.g. 1% BSA and washing, the culture supernatants were added in suitable dilutions together with a horseradish peroxidase-coupled Aβ detection antibody (e.g., antibody 4G8, Senetek, Maryland Heights, Mo.) and incubated for 5 to 7 hrs. Subsequently the wells of the microtiter plate were washed extensively with Tris-buffered saline containing 0.05% Tween 20 and the assay was developed with tetramethylbenzidine/H2O2 in citric acid buffer. After stopping the reaction with one volume 1 N H2SO4 the reaction was measured in an ELISA reader at 450 nm wavelength. The concentrations of Aβ in the culture supernatants were calculated from a standard curve obtained with known amounts of pure Aβ peptide.

Assay [1] deals with T2, recombinant human cathepsin E (Homo sapiens, UniProt P14091).
T2 construct: purchased R&D Systems
T2 sequence (P14091 54-396): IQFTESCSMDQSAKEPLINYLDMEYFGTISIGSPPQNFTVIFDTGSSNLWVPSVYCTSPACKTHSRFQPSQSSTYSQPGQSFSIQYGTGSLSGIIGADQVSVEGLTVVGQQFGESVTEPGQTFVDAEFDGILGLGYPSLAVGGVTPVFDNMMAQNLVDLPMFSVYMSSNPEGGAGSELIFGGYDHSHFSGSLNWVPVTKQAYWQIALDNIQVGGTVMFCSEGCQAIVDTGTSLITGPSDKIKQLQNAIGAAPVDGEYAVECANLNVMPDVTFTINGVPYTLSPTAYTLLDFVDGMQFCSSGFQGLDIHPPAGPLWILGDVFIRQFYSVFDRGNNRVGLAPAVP
As to the kind of experiment: Cathepsin E fluorescent substrate kinetic assay. The format is biochemical. Particulars: pH 4.5. The source says:
(§1) The MR121 fluorescence assays described below are based on the fact that MR121 forms a non-fluorescent ground state complex with tryptophan. In solution this formation occurs at millimolar concentrations of tryptophan. The mechanism can be used to design a generic biochemical assay for proteases. A substrate peptide is labeled at the N-terminus with tryptophan and at the C-terminus with the fluorophore MR121 (for cathepsin D the 10 amino acid peptide WTSVLMAAPC-MR121 was used; for cathepsin E, MR121-CKLVFFAEDW was used). In absence of protease activity, the substrates remain intact and the MR121 fluorescence is reduced by the high local Trp-concentration. If the substrates are cleaved by the enzymes the MR121 fluorescence is recovered.
(§2) The fluorescent substrate cathepsin D and cathepsin E kinetic assays were performed at room temperature in 384-well microtiter plates (black with clear flat bottom, non binding surface plates from Corning) in a final volume of 51 μl. The test compounds were serially diluted in DMSO (15 concentrations, 1/3 dilution steps) and 1 μl of diluted compounds were mixed for 10 min with 40 μl of cathepsin D (from human liver, Calbiochem) diluted in assay buffer (100 mM sodium acetate, 0.05% BSA, pH 5.5; final concentration: 200 nM) or with 40 μl of recombinant human cathepsin E (R&D Systems) diluted in assay buffer (100 mM sodium acetate, 0.05% BSA, pH 4.5; final concentration: 0.01 nM). After addition of 10 μl of the cathepsin D substrate WTSVLMAAPC-MR121 diluted in cathepsin D assay buffer (final concentration: 300 nM) or […] cathepsin E substrate MR121-CKLVFFAEDW diluted in cathepsin E assay buffer (final concentration: 300 nM), the plates were strongly shaken for 2 minutes. The enzymatic reaction was followed in a plate: vision reader (Perkin Elmer) (excitation wavelength: 630 nm; emission: 695 nm) for at least 30 minutes in a kinetic measurement detecting an increase of MR121 fluorescence during the reaction time. The slope in the linear range of the kinetic was calculated and the IC50 of the test compounds were determined using a four parameter equation for curve fitting.

Assay [2] concerns the target T3, cathepsin D (from human liver) (Homo sapiens, UniProt P07339).
T3 construct: cathepsin D (from human liver, Calbiochem); purchased Calbiochem; host or cells: human liver (tissue-purified)
Description: Cathepsin D fluorescent substrate kinetic assay. The assay is classed as biochemical. Particulars: pH 5.5.
From the text: as §1, §2

For the next assay, the target named is T4, CYP3A4 (Homo sapiens, UniProt P08684).
T4 construct: 0.2 mg/ml pooled human liver microsomes; from tissue; host or cells: pooled human liver microsomes
T4 sequence (P08684 whole entry): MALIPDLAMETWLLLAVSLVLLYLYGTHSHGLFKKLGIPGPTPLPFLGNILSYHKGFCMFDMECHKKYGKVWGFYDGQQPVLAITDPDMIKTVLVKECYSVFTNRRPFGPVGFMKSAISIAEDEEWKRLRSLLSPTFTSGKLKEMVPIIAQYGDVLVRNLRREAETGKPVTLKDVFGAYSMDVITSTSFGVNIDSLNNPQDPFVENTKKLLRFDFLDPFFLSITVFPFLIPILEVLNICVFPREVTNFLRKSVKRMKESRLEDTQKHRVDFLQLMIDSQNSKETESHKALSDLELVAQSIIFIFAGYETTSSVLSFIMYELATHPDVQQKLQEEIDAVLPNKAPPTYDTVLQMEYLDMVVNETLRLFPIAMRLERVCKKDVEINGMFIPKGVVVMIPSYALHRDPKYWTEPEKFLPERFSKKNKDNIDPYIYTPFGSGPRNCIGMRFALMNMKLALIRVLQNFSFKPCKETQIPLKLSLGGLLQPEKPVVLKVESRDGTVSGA
Description: CYP inhibition assay, human liver microsomes, midazolam. The assay is classed as in vitro ADME. The settings on record: read-out: CYP IC50 3A4. Here is the method: (§3) Inhibition of cytochromes P450 (CYPs) 2C9, 2D6 and 3A4 was assessed using human liver microsomes and CYP-selective substrate metabolism reactions. 50 μl incubations were made up containing (finally) 0.2 mg/ml pooled human liver microsomes, 5 μM substrate (diclofenac for CYP2C9 [4′hydroxylase], dextromethorphan for CYP2D6 [O-demethylase] or midazolam for CYP3A4 [1′hydroxylase]), 0.25 μL DMSO containing test inhibitor and NADPH regenerating system. Test inhibitor concentrations of 50, 16.7, 5.6, 1.9, 0.6 and 0.2 μM were assessed in singlicate. Incubations were prewarmed to 37° C. for 10 minutes before initiation by addition of NADPH regenerating system. Incubations were quenched after 5 minutes (20 minutes for dextromethorphan) by addition of 50 μl cold acetonitrile containing 20 ng/ml 4-OH-diclofenac-13C6, 20 ng/mL dextrorphan-D3 and 20 ng/mL 1-OH-midazolam-D4. Quenched incubates were stored at −20° C. for at least 1 hour before centrifugation (20,000×g, 20 minutes). Supernatants were removed and diluted 1:1 with water prior to analysis using a RapidFire sample injector system and API4000 mass spectrometer. Peak areas for substrate, metabolite and stable-labelled metabolite standard were determined using MS/MS. The peak area ratios between the metabolite generated by the enzymatic reaction and the internal standard were used in subsequent calculations. The percentage of (DMSO) control activity was calculated for each incubate and IC50 values estimated by non-linear regression. Sulfaphenazole, quinidine or ketoconazole were tested in each CYP2C9, CYP2D6 or CYP3A4 inhibition experiment, respectively, to ensure assay sensitivity and reproducibility. (Validated assays for human cytochrome P450 activities^11)

In another assay the target is T5, CYP2D6 (Homo sapiens, UniProt P10635).
T5 construct: 0.2 mg/ml pooled human liver microsomes; from tissue; host or cells: pooled human liver microsomes
T5 sequence (P10635 whole entry): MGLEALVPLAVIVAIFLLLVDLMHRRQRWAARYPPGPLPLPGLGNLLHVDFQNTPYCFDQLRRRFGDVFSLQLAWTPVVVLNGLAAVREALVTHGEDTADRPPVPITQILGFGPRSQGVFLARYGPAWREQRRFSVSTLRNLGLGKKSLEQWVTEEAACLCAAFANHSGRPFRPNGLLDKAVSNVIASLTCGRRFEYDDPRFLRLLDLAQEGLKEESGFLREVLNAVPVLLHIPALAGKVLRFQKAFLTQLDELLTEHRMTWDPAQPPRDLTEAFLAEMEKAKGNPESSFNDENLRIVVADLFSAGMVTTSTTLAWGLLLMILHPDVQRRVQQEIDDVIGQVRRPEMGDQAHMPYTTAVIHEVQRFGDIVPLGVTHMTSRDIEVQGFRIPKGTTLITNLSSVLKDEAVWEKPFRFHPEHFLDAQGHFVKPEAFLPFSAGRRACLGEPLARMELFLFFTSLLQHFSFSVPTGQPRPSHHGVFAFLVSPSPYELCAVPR
As to the kind of experiment: CYP inhibition assay, human liver microsomes, dextromethorphan. The settings on record: read-out: CYP IC50 2D6. The format is in vitro ADME. Here is the method:
as §3

A further assay concerns the target T6, CYP2C9 (Homo sapiens, UniProt P11712).
T6 construct: 0.2 mg/ml pooled human liver microsomes; from tissue; host or cells: pooled human liver microsomes
As to the kind of experiment: CYP inhibition assay, human liver microsomes, diclofenac. The format is in vitro ADME. The settings on record: read-out: CYP IC50 2C9. Here is the method: as §3

SMILES strings stand for the structures. pIC50: −log10 of the molar value.

T1 sequence (P56817 46-501): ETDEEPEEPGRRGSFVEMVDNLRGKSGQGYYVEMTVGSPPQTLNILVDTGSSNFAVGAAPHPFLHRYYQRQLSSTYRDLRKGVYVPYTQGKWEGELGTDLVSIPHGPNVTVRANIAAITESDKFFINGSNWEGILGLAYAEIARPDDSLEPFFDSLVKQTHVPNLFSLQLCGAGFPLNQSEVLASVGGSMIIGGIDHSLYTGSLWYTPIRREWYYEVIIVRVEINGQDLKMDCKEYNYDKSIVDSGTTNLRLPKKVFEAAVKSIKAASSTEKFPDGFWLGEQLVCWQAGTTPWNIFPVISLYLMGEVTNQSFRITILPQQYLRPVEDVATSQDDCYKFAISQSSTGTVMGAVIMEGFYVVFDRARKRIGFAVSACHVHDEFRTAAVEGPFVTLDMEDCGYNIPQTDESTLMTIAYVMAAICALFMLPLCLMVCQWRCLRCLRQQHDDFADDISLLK
T3 sequence (P07339 65-162 limits assumed): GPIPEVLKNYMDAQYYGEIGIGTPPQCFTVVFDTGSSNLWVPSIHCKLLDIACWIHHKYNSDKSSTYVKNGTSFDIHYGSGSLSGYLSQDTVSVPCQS
T3 sequence (P07339 169-412 limits assumed): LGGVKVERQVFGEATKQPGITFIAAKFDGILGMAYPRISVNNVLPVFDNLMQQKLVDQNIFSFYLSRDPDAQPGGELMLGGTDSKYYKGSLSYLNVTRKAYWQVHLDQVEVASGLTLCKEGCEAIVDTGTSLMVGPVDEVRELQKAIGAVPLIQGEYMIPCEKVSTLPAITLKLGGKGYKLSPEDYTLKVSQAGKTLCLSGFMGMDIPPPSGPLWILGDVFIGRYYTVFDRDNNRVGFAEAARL
T6 sequence (P11712 whole entry): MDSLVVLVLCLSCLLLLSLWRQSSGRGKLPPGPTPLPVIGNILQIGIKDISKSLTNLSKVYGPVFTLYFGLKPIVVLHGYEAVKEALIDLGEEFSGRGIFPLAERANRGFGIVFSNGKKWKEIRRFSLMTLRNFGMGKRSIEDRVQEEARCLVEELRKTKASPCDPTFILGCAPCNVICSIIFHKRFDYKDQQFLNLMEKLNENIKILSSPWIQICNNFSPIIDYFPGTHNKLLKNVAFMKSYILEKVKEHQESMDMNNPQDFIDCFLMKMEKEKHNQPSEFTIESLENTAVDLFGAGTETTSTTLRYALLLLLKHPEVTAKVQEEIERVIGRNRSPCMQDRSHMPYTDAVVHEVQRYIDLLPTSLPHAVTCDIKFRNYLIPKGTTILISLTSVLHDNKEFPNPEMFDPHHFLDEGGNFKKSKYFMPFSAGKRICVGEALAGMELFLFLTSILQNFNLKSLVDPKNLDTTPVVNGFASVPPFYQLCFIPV

With `C[C@]1(c2cc(NC(=O)c3ccc(Cl)cn3)ccc2F)N=C(N)O[C@@H]2CCC(F)(F)[C@@H]21` [Example 3], the pIC50 on BACE1 is 8.72.

In the case of `CC(F)(F)c1cnc(C(=O)Nc2ccc(F)c([C@@]3(C)N=C(N)O[C@@H]4CCC(F)(F)[C@@H]43)c2)cn1` [Example 4, 5-(1,1-Difluoro-ethyl)-pyrazine-2-carboxylic acid [3-((4S,4aR,7aR)-2-amino-5,5-difluoro-4-methyl-4,4a,5,6,7,7a-hexahydro-cyclopenta[e][1,3]oxazin-4-yl)-4-fluoro-phenyl]-amide], the pIC50 at BACE1 is 8.05; in assay [1] it was less than 3.70; in assay [2] it was 3.74.

For `C[C@]1(c2cc(NC(=O)c3cnc(CF)cn3)ccc2F)N=C(N)O[C@@H]2CCC(F)(F)[C@@H]21` [Example 5, 5-Fluoromethyl-pyrazine-2-carboxylic acid [3-((4S,4aR,7aR)-2-amino-5,5-difluoro-4-methyl-4,4a,5,6,7,7a-hexahydro-cyclopenta[e][1,3]oxazin-4-yl)-4-fluoro-phenyl]-amide], the pIC50 at BACE1 was 8.29.

As to `C[C@]1(c2cc(NC(=O)c3cnc(C#N)cn3)ccc2F)N=C(N)O[C@@H]2CCC(F)(F)[C@@H]21` [Example 6, 5-Cyano-pyrazine-2-carboxylic acid [3-((4S,4aR,7aR)-2-amino-5,5-difluoro-4-methyl-4,4a,5,6,7,7a-hexahydro-cyclopenta[e][1,3]oxazin-4-yl)-4-fluoro-phenyl]-amide], the pIC50 on BACE1 is 8.26.

In the case of `C[C@]1(c2cc(NC(=O)c3ccc(Cl)cn3)ccc2F)N=C(N)O[C@@H]2CCCC(F)(F)[C@@H]21` [Example 7, 5-Chloro-pyridine-2-carboxylic acid [3-((4S,4aR,8aR)-2-amino-5,5-difluoro-4-methyl-4a,5,6,7,8,8a-hexahydro-4H-benzo[e][1,3]oxazin-4-yl)-4-fluoro-phenyl]-amide], on BACE1, the pIC50 was 8.31.

For the molecule `C[C@]1(c2cc(NC(=O)c3ccc(Cl)s3)ccc2F)N=C(N)O[C@@H]2CCCC(F)(F)[C@@H]21` [Example 9, 5-Chloro-thiophene-2-carboxylic acid [3-((4S,4aR,8aR)-2-amino-5,5-difluoro-4-methyl-4a,5,6,7,8,8a-hexahydro-4H-benzo[e][1,3]oxazin-4-yl)-4-fluoro-phenyl]-amide], the pIC50 is 6.46 at BACE1; less than 3.70 in assay [1]; 3.98 in assay [2]; less than 5.00 at CYP3A4; 5.00 to 6.00 on CYP2D6; 5.00 to 6.00 on CYP2C9.

(Values after US9181232B2, “Difluoro-hexahydro-cyclopentaoxazinyls and difluoro-hexahydro-benzooxazinyls as BACE1 inhibitors” (Hoffmann-La Roche Inc., priority 2012, dated 2015).)
